Results as given in patent US11278555B2, “Combinational therapies for treatment of cancer comprising a bacteriochlorophyll derivative” (Yeda Research and Development Co. Ltd., priority 2016, dated 2022).

Legend:
MB49 (bladder) tumors [1] = test: WST11 VTP and Gemzar in mice grafted with MB49 tumors (Scheme 2); format: in vivo; settings: for animals cured (fraction): WST11 9 mg/kg VTP day 15 post grafting, Gemzar 50 mg/kg, 12 treatments/90 days; for cure / tumor progression: single treatment modalities
Method: • (i) Bacteriochlorophyll Derivatives—The Bchl derivatives and RGD-conjugates thereof were provided by Steba Biotech (Rehovot, Israel). […] Concentration was verified by spectrophotometric measurement. STL-7012 was provided as dipotassium salt. Working solution was prepared by dissolving STL-7012 K^+ salt in 5% mannitol solution (1 mg/ml). […] WST11 was supplied as a powder and kept in the dark at −20° C. Stock was prepared by dissolving WST11 in DDW containing 5% glucose and 0.67% mannitol, aliquoted and lyophilized. Working solution was reconstituted with DDW and the concentration of solution was confirmed spectrophotometrically. Alternatively, Clinical WST11 (batch: P00611, and 10-130611) was supplied as lyophilized formulation. Material was dissolved in 5% dextrose, aliquoted and stored at −20° C. At the day of treatment the aliquot was thawed, filtered and the concentration of solution was confirmed spectrophotometrically. • (ii) Chemotherapeutic drugs preparation and storage—Gemcitabine (GEM, Gemzar®, Lilly) was purchased from a local pharmacy as a powder, dissolved in saline to a concentration of 38 mg/ml, aliquoted and stored at −20° C. […] Cyclophosphamide (CTX, Endoxan®, Baxter Oncology Gmbh, Germany) was purchased from a local pharmacy. A stock solution of 20 mg/ml was prepared by dissolving in 0.9% NaCl, aliquoted and stored at −20° C. Aliquots were thawed, diluted with saline if needed to a desired concentration and used on the same day prepared at indicated doses. • (iii) Murine cell lines—Mammary luciferase (luc)-labeled 4T1 cell line (4T1-Luc) was a kind gift from Dr. Zvi Granot (Faculty of Medicine, The Hebrew University of Jerusalem, Israel); melanoma B16-F10 cell line was obtained from the American Type Culture Collection (ATCC, Manassas, Va.); bladder MB49 cell line was a kind gift from James Allison (MSKCC, New York, USA), and luc-labeled MB49-cell line was established using the murine stem cell virus (MSCV)-puromycin-luc-GFP construct (kindly provided by Dr. Emily Cheng, Human Oncology and Pathogenesis Program, MSKCC). 4T1 and MB49 cells were maintained in DMEM medium and B16-F10 cells in RPMI medium supplemented with 1 mmol/L sodium pyruvate, 10% fetal calf serum (FCS), 250 μg/ml hygromycin, 0.06 mg/ml penicillin and 0.1 mg/ml streptomycin. The cells were grown as monolayer at 37° C. in a humidified atmosphere (5% CO2, 95% air). • (iv) Murine tumor models—Female, Balb/c mice (6-8 week old) were grafted either subcutaneously (s.c.) into the right hind leg or orthotopically with 1×10^6 4T1 cells suspended in 50 or 1000 PBS. For the rechallenge study, 2×10^5 4T1 cells were orthotopically grafted. For bladder cancer model, 5×10^4 of MB49 or MB49-luciferase cell line were s.c. injected into the right flank of C57B/6 male mice (7-8 weeks old, Taconic, Hudson, N.Y.) 15 days prior to VTP treatment. For the efficacy study of VTP in immune compromised mice, the same number of MB49 cells was injected in the flank of Rag^−/− on C57B/6 background or C57B/6 male mice (7-8 week old, Jackson Laboratory, Bar Harbor, Me.). For bilateral model of MB49 cells, animals received 5×10^4 MB49 cells in the right flank and 5×10^4 cells in the left flank on days −15 and +1, respectively. All experimental procedures were approved by the Institutional Animal Care and Use Committee at the Weizmann Institute of Science (Rehovot, Israel) and The Memorial Sloan Kettering Cancer Center (MSKCC, New York, USA). […] Whole body imaging of luciferase-transfected tumors and metastases were recorded five minutes following 75 mg Kg^−1 intraperitoneal (i.p.) injection of D-luciferin with respective filter sets. • (vi) PDT treatment protocol: 4T1-Luc cells were grafted in the mammary pad of Balb/c mice. […] During the first two post-treatment days, the mice received analgesia (2.5 mg/kg Flunexin, once daily). Ablation of primary tumors was assessed every 7 days by imaging the tumor's luciferase-mediated bioluminescence signal, using IVIS. […]

MB49 (bladder) tumors [2] = test: Systemic anti-tumor response in MB49 mice: second tumor (bilateral model) and tail vein re-challenge (Scheme 3); format: in vivo; settings: for animals with growth of second tumor grafted at left hind leg 1 day post VTP (fraction): bilateral model, Gemzar 50 mg/kg
Method: • (i) Bacteriochlorophyll Derivatives—The Bchl derivatives and RGD-conjugates thereof were provided by Steba Biotech (Rehovot, Israel). […] Concentration was verified by spectrophotometric measurement. STL-7012 was provided as dipotassium salt. Working solution was prepared by dissolving STL-7012 K^+ salt in 5% mannitol solution (1 mg/ml). […] WST11 was supplied as a powder and kept in the dark at −20° C. Stock was prepared by dissolving WST11 in DDW containing 5% glucose and 0.67% mannitol, aliquoted and lyophilized. Working solution was reconstituted with DDW and the concentration of solution was confirmed spectrophotometrically. Alternatively, Clinical WST11 (batch: P00611, and 10-130611) was supplied as lyophilized formulation. Material was dissolved in 5% dextrose, aliquoted and stored at −20° C. At the day of treatment the aliquot was thawed, filtered and the concentration of solution was confirmed spectrophotometrically. • (ii) Chemotherapeutic drugs preparation and storage—Gemcitabine (GEM, Gemzar®, Lilly) was purchased from a local pharmacy as a powder, dissolved in saline to a concentration of 38 mg/ml, aliquoted and stored at −20° C. […] Cyclophosphamide (CTX, Endoxan®, Baxter Oncology Gmbh, Germany) was purchased from a local pharmacy. A stock solution of 20 mg/ml was prepared by dissolving in 0.9% NaCl, aliquoted and stored at −20° C. […] Whole body imaging of luciferase-transfected tumors and metastases were recorded five minutes following 75 mg Kg^−1 intraperitoneal (i.p.) injection of D-luciferin with respective filter sets. • (vi) PDT treatment protocol: 4T1-Luc cells were grafted in the mammary pad of Balb/c mice. […] Ablation of primary tumors was assessed every 7 days by imaging the tumor's luciferase-mediated bioluminescence signal, using IVIS. […]

[3] = Spleen weight of animals orthotopically grafted with 4T1 cancer cells; format: in vivo, mice; settings: 1 and 3 weeks
Excerpt: FIG. 13 compares changes in the spleen weight of animals orthotopically grafted with 4T1 cancer cells and not treated (control) with tumor bearing animals that underwent Gemzar treatment, WST11 VTP treatment or their combination.

[4] = system: CD11b+ cells, neutrophils/G-MDSC and monocytes/M-MDSC; test: Innate immune response (spleen CD11b+ IHC, FACS of MDSC) of mice bearing MB49 tumors; format: in vivo; settings: for CD11b+ cells in the spleen (IHC): day 6 post VTP; for neutrophils/G-MDSC and monocytes/M-MDSC in splenocytic cells (FACS): day 9 post treatment, Gemzar 60 or 120 mg/kg
Method: • (i) Bacteriochlorophyll Derivatives—The Bchl derivatives and RGD-conjugates thereof were provided by Steba Biotech (Rehovot, Israel). […] Concentration was verified by spectrophotometric measurement. STL-7012 was provided as dipotassium salt. Working solution was prepared by dissolving STL-7012 K^+ salt in 5% mannitol solution (1 mg/ml). […] WST11 was supplied as a powder and kept in the dark at −20° C. Stock was prepared by dissolving WST11 in DDW containing 5% glucose and 0.67% mannitol, aliquoted and lyophilized. Working solution was reconstituted with DDW and the concentration of solution was confirmed spectrophotometrically. Alternatively, Clinical WST11 (batch: P00611, and 10-130611) was supplied as lyophilized formulation. Material was dissolved in 5% dextrose, aliquoted and stored at −20° C. At the day of treatment the aliquot was thawed, filtered and the concentration of solution was confirmed spectrophotometrically. • (ii) Chemotherapeutic drugs preparation and storage—Gemcitabine (GEM, Gemzar®, Lilly) was purchased from a local pharmacy as a powder, dissolved in saline to a concentration of 38 mg/ml, aliquoted and stored at −20° C. […] Cyclophosphamide (CTX, Endoxan®, Baxter Oncology Gmbh, Germany) was purchased from a local pharmacy. A stock solution of 20 mg/ml was prepared by dissolving in 0.9% NaCl, aliquoted and stored at −20° C. Aliquots were thawed, diluted with saline if needed to a desired concentration and used on the same day prepared at indicated doses. • (iii) Murine cell lines—Mammary luciferase (luc)-labeled 4T1 cell line (4T1-Luc) was a kind gift from Dr. Zvi Granot (Faculty of Medicine, The Hebrew University of Jerusalem, Israel); melanoma B16-F10 cell line was obtained from the American Type Culture Collection (ATCC, Manassas, Va.); bladder MB49 cell line was a kind gift from James Allison (MSKCC, New York, USA), and luc-labeled MB49-cell line was established using the murine stem cell virus (MSCV)-puromycin-luc-GFP construct (kindly provided by Dr. Emily Cheng, Human Oncology and Pathogenesis Program, MSKCC). 4T1 and MB49 cells were maintained in DMEM medium and B16-F10 cells in RPMI medium supplemented with 1 mmol/L sodium pyruvate, 10% fetal calf serum (FCS), 250 μg/ml hygromycin, 0.06 mg/ml penicillin and 0.1 mg/ml streptomycin. […] Whole body imaging of luciferase-transfected tumors and metastases were recorded five minutes following 75 mg Kg^−1 intraperitoneal (i.p.) injection of D-luciferin with respective filter sets. • (vi) PDT treatment protocol: 4T1-Luc cells were grafted in the mammary pad of Balb/c mice. […] Ablation of primary tumors was assessed every 7 days by imaging the tumor's luciferase-mediated bioluminescence signal, using IVIS. […]

Structure (SMILES)	animals cured (fraction) (MB49 (bladder) tumors [1])	cure (MB49 (bladder) tumors [1]) [%]	tumor progression (MB49 (bladder) tumors [1])	animals with growth of second tumor grafted at left hind leg 1 day post VTP (fraction) (MB49 (bladder) tumors [2])	six fold increase in spleen weight found in non-treated animals [3]	CD11b+ cells in the spleen (IHC) [4]	neutrophils/G-MDSC and monocytes/M-MDSC in splenocytic cells (FACS) [4]	surviving mice that rejected the tumor cells (MB49 (bladder) tumors [2]; re-challenge by tail vein injection of MB49 cells at day 125 post VTP) [%]
Nc1ccn([C@@H]2O[C@H](CO)[C@@H](O)C2(F)F)c(=O)n1 [Gemzar, Gemcitabine]	0/19	0	slightly delayed tumor progression	15/20	almost completely avoided	depletes CD11b+ cells	depleted systemically	
CCC1c2cc3[n-]c(c(CC(=O)OC)c4nc(cc5[n-]c(cc(n2)C1C)c(C(C)=O)c5C)C(C)C4CCC(=O)[O-])c(C(=O)NCCS(=O)(=O)[O-])c3C.[K+].[K+].[Pd+2] (stereo not drawn) [WST11, Palladium 3^1-oxo-15-methoxycarbonylmethyl-rhodobacteriochlorin 13^1-(2-sulfoethyl) amide dipotassium salt]	3/19	16	slightly delayed tumor progression	12/19	completely prevented	depletes CD11b+ cells	depleted systemically	70
